Results taken from patent publication US20020127544A1, “Modulators of US 28” (priority 2000, published 2002).
Counter-ions that a name gives are not always drawn. Like-named read-outs stand apart in the source and are kept apart here.

B1: Fractalkine: the CX3C chemokine, ligand of US28 (protein, UniProt P78423 25-397, looked up)
Fractalkine: QHHGVTKCNITCSKMTSKIPVALLIHYQQNQASCGKRAIILETRQHRLFCADPKEQWVKDAMQHLDRQAAALTRNGGTFEKQIGEVKPRTTPAAGGMDESVVLEPEATGESSSLEPTPSSQEAQRALGTSPELPTGVTGSSGTRLPPTPKAQDGGPVGTELFRVPPVSTAATWQSSAPHQPGPSLWAEAKTSEAPSTQDPSTQASTASSPAPEENAPSEGQRVWGQGQSPRPENSLEREEMGPVPAHTDAFQDWGPGSMAHVSVVPVSSEGTPSREPVASGSWTPKAEEPIHATMDPQRLGVLITPVPDAQAATRRQAVGLLAFLGLLFCLGVAMFTYQSLQGCPRKMAGEMAEGLRYIPRSCGSNSYVLVPV

Experiments:
US28 [1] = molecular target: T1, US28 (Human cytomegalovirus, UniProt P69332); assay: cytoplasmic calcium mobilization in US28-293 cells; format: cell-based, Cytomegalovirus (CMV); design: expressed in transfected cells; host or cells: human 293 cells (US28-293); conditions: INDO-1 dye, mimicking the action of fractalkine in binding and signaling (FIG. 2)
T1 sequence (P69332 whole entry): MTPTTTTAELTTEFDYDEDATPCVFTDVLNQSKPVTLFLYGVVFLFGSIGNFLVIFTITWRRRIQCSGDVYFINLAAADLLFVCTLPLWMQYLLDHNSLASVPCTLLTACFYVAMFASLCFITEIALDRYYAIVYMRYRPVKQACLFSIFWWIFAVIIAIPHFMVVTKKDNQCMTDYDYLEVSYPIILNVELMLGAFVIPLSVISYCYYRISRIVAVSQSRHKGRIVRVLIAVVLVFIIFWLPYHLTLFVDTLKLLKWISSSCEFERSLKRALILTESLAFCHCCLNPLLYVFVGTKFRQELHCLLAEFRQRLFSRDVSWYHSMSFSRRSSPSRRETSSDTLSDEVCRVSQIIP
Protocol: For each test, 1×10^6 cells were incubated at 37° C. in the cuvette of a PTI spectrometer, and the ratio of 410/490 nm emission plotted over time (typically 2-3 minutes), with compounds added at 5 seconds, followed by fractalkine at 60 seconds. […] Compounds which inhibited fractalkine binding were tested in this assay for the effects on Ca2+ in this system.
Methiothepin mesylate (from the RBI division of Sigma Chemical Co., St. Louis, Mo., USA, Catalog No. M-149) and octoclothepin maleate (from RBI, Catalog No. O-111) were evaluated in the assays described in Examples 1 and 2. The IC50 values were 0.3 μM for methiothepin mesylate and 0.7 μM for octoclothepin maleate.

US28 [2] = molecular target: T1, US28; assay: 125I-fractalkine radioligand binding to US28 on US28-NSO cells; design: host or cells: mouse NSO cells (US28-NSO); species or system Cytomegalovirus (CMV)
Protocol: The US28 expressing cells used in most assays consist of a mouse cell line (NSO cells from ATCC) stably expressing transfected US28 cDNA under the control of a CMV promoter (from R & D Systems). These cells were cultured in IMDM-5% FBS, and harvested when the concentration was between 0.5-1.0×10^6 cells/mL. Some assays were performed with adherent human 293 cells (US28-293 cells) or membranes. The cells were centrifuged and resuspended in assay buffer (20 mM HEPES, 140 mM NaCl, 1 mM CaCl2, 5 mM MgCl2, and with 0.2% bovine serum albumin) to a concentration of 5.6×10^6 cells/mL. Using the Multi-Probe automated system, set up with 8 assay plates at a time, first 0.09 mL of cells was added to the assay plates containing the compounds. The final concentration of the compounds was 5 μg/mL each. Then 0.09 mL of ^1251I-fractalkine diluted in assay buffer (final concentration ˜2-10fM, with ˜30,000 cpm per well) was added, the plates sealed and incubated for approximately 3 hours at 4 degrees C on a shaker platform. […] Scintillation fluid (35 μL) was added to all wells, the plates were sealed and counted in a Top Count scintillation counter. […]
Methiothepin mesylate (from the RBI division of Sigma Chemical Co., St. Louis, Mo., USA, Catalog No. M-149) and octoclothepin maleate (from RBI, Catalog No. O-111) were evaluated in the assays described in Examples 1 and 2. […]

US28 [3] = molecular target: T1, US28; design: host or cells: mouse NSO cells (US28-NSO); conditions: CX3C chemokine binding to US28; read-out: KI, binding affinity to US28; cited from earlier work

Molecule | mode of action in calcium mobilization (US28 [1]) | IC50 (US28 [2]) [nM] | IC50 (US28 [2]; dose response against fractalkine on US28-NSO cells (FIG. 1), read-out: IC50, inhibition of fractalkine binding to US28) [nM] | Ki (US28 [3]) [nM]
CSc1ccc2c(c1)C(N1CCN(C)CC1)Cc1ccccc1S2 (centres unmarked) [methiothepin mesylate, methiothepin] | competitive agonists | 300 | – | –
CN1CCN(C2Cc3ccccc3Sc3ccc(Cl)cc32)CC1.O=C(O)/C=C\C(=O)O (centres unmarked) [octoclothepin maleate, octoclothepin] | competitive agonists | – | 700 | –
B1 | – | – | – | ~0.05
